Tests used:
[1] = system: Bacillus coagulans (IFO12714); experiment: Antimicrobial action of licoricidin on flat sour bacteria in Japanese seasoned soup stock (Test Example 8); format: cell-based; set-up: key to Evaluation (antimicrobial activity by comparing the pHs): A: There is no change in pH as compared with the control.; B: The pH decreases as compared with the control; conditions: for pH: Japanese seasoned soup stock (salt 3% (w/v), alcohol 0.4% (v/v), pH 5.2), cultured at 45° C. for 7 days; for Evaluation (antimicrobial activity by comparing the pHs): Japanese seasoned soup stock
Experimental: (§1) Specifically, components contained in dried bonito was extracted with water; Koikuchi soy sauce (produced by Kikkoman Corporation), sugar, and salt were blended with the obtained extract; and the resulting mixture was heated to produce Japanese seasoned soup stock. The salt concentration of the obtained Japanese seasoned soup stock was 3% (w/v), the alcohol concentration was 0.4% (v/v), and the pH was 5.2.
Licoricidin (produced by ChemFaces) was added to the produced Japanese seasoned soup stock to concentrations of 1 ppm, 5 ppm, 10 ppm, 25 ppm, and 50 ppm. Flat sour bacteria (Bacillus coagulans (IFO12714)) were then added to 10^4 to 10^5 cells/mL and cultured at 45° C. for 7 days. Japanese seasoned soup stock to which licoricidin was not added was used as a control, and the antimicrobial activity was evaluated by comparing the pHs. The evaluation was performed using the following criterion.
• A: There is no change in pH as compared with the control. • B: The pH decreases as compared with the control.

[2] = system: Lactobacillus acidipiscis NBRC 102164; experiment: Antimicrobial action of licoricidin in liquid seasoning (1), lactic acid bacteria D; format: cell-based; set-up: key: A: The bacterial count decreases to less than 10% of the bacterial count of the control group.; B: The bacterial count decreases to 10% or more and less than 50% of the bacterial count of the control group.; C: The bacterial count decreases to 50% or more and less than 100% of the bacterial count of control group.; D: The bacterial count is the same as the bacterial count of the control group
Experimental: Commercially available whole soybean soy sauce (produced by Kikkoman Corporation) was electrodialyzed and then concentrated under reduced pressure to obtain soy sauce at a salt concentration of 0% (w/v) and an alcohol concentration of 0% (v/v). Then, salt and/or alcohol was added to the above-mentioned obtained soy sauce, and the mixture was heat-treated to produce soy sauces at salt concentrations and alcohol concentrations shown in the following Table 5. The pHs of the soy sauces were 4.9 to 5.0.
Specifically, components contained in dried bonito was extracted with alcohol and water; sugar, salt, and seasonings were blended with the obtained extract; and the resulting mixture was heated to produce bonito stock. The salt concentration of the obtained bonito stock was 0.2% (w/v), the alcohol concentration was 0.15% (v/v), and the pH was 6.1.
Specifically, Koikuchi soy sauce (produced by Kikkoman Corporation), granulated sugar, potato starch, and water were blended in amounts shown in following Table 7, and the resulting mixture was heated to produce sauce. The salt concentration of the obtained sauce was 5.3% (w/v), the alcohol concentration was 0.8% (v/v), and the pH was 5.0.
as §1, with “Specifically, the” for “Specifically,”, “5.5.” for “5.2.”
Licoricidin (produced by ChemFaces) was added to each of the liquid seasonings produced in the above-mentioned (1) to concentrations of 1 ppm, 5 ppm, 10 ppm, 25 ppm, and 50 ppm. Lactic acid bacteria described in the following Table 9 were then added to 10^6 to 10^7 cells/mL and cultured at 30° C. for 7 days. After the culture, the number of lactic acid bacteria was measured using the GAM agar medium “Nissui”. Liquid seasoning to which licoricidin was not added was used as a control group, and the antimicrobial activity was evaluated in comparison with the number of lactic acid bacteria in the control group. The evaluation was performed using the criterion shown below.
• A: The bacterial count decreases to less than 10% of the bacterial count of the control group. • B: The bacterial count decreases to 10% or more and less than 50% of the bacterial count of the control group. • C: The bacterial count decreases to 50% or more and less than 100% of the bacterial count of control group. • D: The bacterial count is the same as the bacterial count of the control group.

COc1c(CC=C(C)C)c(O)cc2c1C[C@H](c1ccc(O)c(CC=C(C)C)c1O)CO2 [Licoricidin, 4-[(R)-7-hydroxy-5-methoxy-6-(3-methyl-2-butenyl)chroman-3-yl]-2-(3-methyl-2-butenyl)-1,3-benzenediol]
pH ([1]; licoricidin 1 ppm): 4.1
pH ([1]; licoricidin 5 ppm): 4.1
pH ([1]; licoricidin 10 ppm): 5.3
pH ([1]; licoricidin 25 ppm): 5.3
pH ([1]; licoricidin 50 ppm): 5.2
Evaluation (antimicrobial activity by comparing the pHs) ([1]; licoricidin 1 ppm): B
Evaluation (antimicrobial activity by comparing the pHs) ([1]; licoricidin 5 ppm): B
Evaluation (antimicrobial activity by comparing the pHs) ([1]; licoricidin 10 ppm): A
Evaluation (antimicrobial activity by comparing the pHs) ([1]; licoricidin 25 ppm): A
Evaluation (antimicrobial activity by comparing the pHs) ([1]; licoricidin 50 ppm): A
Antimicrobial activity to flat sour bacteria ([1]; conclusion of Test Example 8): exhibited antimicrobial activity
Antimicrobial activity ([2]; Bonito stock (salt 0.2% (w/v), alcohol 0.15% (v/v), pH 6.1), licoricidin 1 ppm): A (The bacterial count decreases to less than 10% of the bacterial count of the control group.)
Antimicrobial activity ([2]; Bonito stock (salt 0.2% (w/v), alcohol 0.15% (v/v), pH 6.1), licoricidin 5 ppm): A (The bacterial count decreases to less than 10% of the bacterial count of the control group.)
Antimicrobial activity ([2]; Bonito stock (salt 0.2% (w/v), alcohol 0.15% (v/v), pH 6.1), licoricidin 10 ppm): A (The bacterial count decreases to less than 10% of the bacterial count of the control group.)
Antimicrobial activity ([2]; Bonito stock (salt 0.2% (w/v), alcohol 0.15% (v/v), pH 6.1), licoricidin 25 ppm): A (The bacterial count decreases to less than 10% of the bacterial count of the control group.)
Antimicrobial activity ([2]; Bonito stock (salt 0.2% (w/v), alcohol 0.15% (v/v), pH 6.1), licoricidin 50 ppm): A (The bacterial count decreases to less than 10% of the bacterial count of the control group.)
Antimicrobial activity ([2]; Japanese seasoned soup stock (salt 3% (w/v), alcohol 0.4% (v/v), pH 5.5), licoricidin 1 ppm): D
Antimicrobial activity ([2]; Japanese seasoned soup stock (salt 3% (w/v), alcohol 0.4% (v/v), pH 5.5), licoricidin 5 ppm): A (The bacterial count decreases to less than 10% of the bacterial count of the control group.)
Antimicrobial activity ([2]; Japanese seasoned soup stock (salt 3% (w/v), alcohol 0.4% (v/v), pH 5.5), licoricidin 10 ppm): A (The bacterial count decreases to less than 10% of the bacterial count of the control group.)
Antimicrobial activity ([2]; Japanese seasoned soup stock (salt 3% (w/v), alcohol 0.4% (v/v), pH 5.5), licoricidin 25 ppm): A (The bacterial count decreases to less than 10% of the bacterial count of the control group.)
Antimicrobial activity ([2]; Japanese seasoned soup stock (salt 3% (w/v), alcohol 0.4% (v/v), pH 5.5), licoricidin 50 ppm): A (The bacterial count decreases to less than 10% of the bacterial count of the control group.)
Antimicrobial activity ([2]; Sauce (salt 5.3% (w/v), alcohol 0.8% (v/v), pH 5.0), licoricidin 1 ppm): C (The bacterial count decreases to 50% or more and less than 100% of the bacterial count of control group.)
Antimicrobial activity ([2]; Sauce (salt 5.3% (w/v), alcohol 0.8% (v/v), pH 5.0), licoricidin 5 ppm): C (The bacterial count decreases to 50% or more and less than 100% of the bacterial count of control group.)
Antimicrobial activity ([2]; Sauce (salt 5.3% (w/v), alcohol 0.8% (v/v), pH 5.0), licoricidin 10 ppm): A (The bacterial count decreases to less than 10% of the bacterial count of the control group.)
Antimicrobial activity ([2]; Sauce (salt 5.3% (w/v), alcohol 0.8% (v/v), pH 5.0), licoricidin 25 ppm): A (The bacterial count decreases to less than 10% of the bacterial count of the control group.)
Antimicrobial activity ([2]; Sauce (salt 5.3% (w/v), alcohol 0.8% (v/v), pH 5.0), licoricidin 50 ppm): A (The bacterial count decreases to less than 10% of the bacterial count of the control group.)
Antimicrobial activity ([2]; Soy sauce, salt 0% (w/v), alcohol 0% (v/v), licoricidin 1 ppm): C (The bacterial count decreases to 50% or more and less than 100% of the bacterial count of control group.)
Antimicrobial activity ([2]; Soy sauce, salt 0% (w/v), alcohol 0% (v/v), licoricidin 5 ppm): C (The bacterial count decreases to 50% or more and less than 100% of the bacterial count of control group.)
Antimicrobial activity ([2]; Soy sauce, salt 0% (w/v), alcohol 0% (v/v), licoricidin 10 ppm): B (The bacterial count decreases to 10% or more and less than 50% of the bacterial count of the control group.)
Antimicrobial activity ([2]; Soy sauce, salt 0% (w/v), alcohol 0% (v/v), licoricidin 25 ppm): A (The bacterial count decreases to less than 10% of the bacterial count of the control group.)
Antimicrobial activity ([2]; Soy sauce, salt 0% (w/v), alcohol 0% (v/v), licoricidin 50 ppm): A (The bacterial count decreases to less than 10% of the bacterial count of the control group.)
Antimicrobial activity ([2]; Soy sauce, salt 4% (w/v), alcohol 0% (v/v), licoricidin 1 ppm): D
Antimicrobial activity ([2]; Soy sauce, salt 4% (w/v), alcohol 0% (v/v), licoricidin 5 ppm): A (The bacterial count decreases to less than 10% of the bacterial count of the control group.)
Antimicrobial activity ([2]; Soy sauce, salt 4% (w/v), alcohol 0% (v/v), licoricidin 10 ppm): A (The bacterial count decreases to less than 10% of the bacterial count of the control group.)
Antimicrobial activity ([2]; Soy sauce, salt 4% (w/v), alcohol 0% (v/v), licoricidin 25 ppm): A (The bacterial count decreases to less than 10% of the bacterial count of the control group.)
Antimicrobial activity ([2]; Soy sauce, salt 4% (w/v), alcohol 0% (v/v), licoricidin 50 ppm): A (The bacterial count decreases to less than 10% of the bacterial count of the control group.)
Antimicrobial activity ([2]; Soy sauce, salt 8% (w/v), alcohol 0% (v/v), licoricidin 1 ppm): C (The bacterial count decreases to 50% or more and less than 100% of the bacterial count of control group.)
Antimicrobial activity ([2]; Soy sauce, salt 8% (w/v), alcohol 0% (v/v), licoricidin 5 ppm): A (The bacterial count decreases to less than 10% of the bacterial count of the control group.)
Antimicrobial activity ([2]; Soy sauce, salt 8% (w/v), alcohol 0% (v/v), licoricidin 10 ppm): A (The bacterial count decreases to less than 10% of the bacterial count of the control group.)
Antimicrobial activity ([2]; Soy sauce, salt 8% (w/v), alcohol 0% (v/v), licoricidin 25 ppm): A (The bacterial count decreases to less than 10% of the bacterial count of the control group.)
Antimicrobial activity ([2]; Soy sauce, salt 8% (w/v), alcohol 0% (v/v), licoricidin 50 ppm): A (The bacterial count decreases to less than 10% of the bacterial count of the control group.)
Antimicrobial activity ([2]; Soy sauce, salt 12% (w/v), alcohol 0% (v/v), licoricidin 1 ppm): D
Antimicrobial activity ([2]; Soy sauce, salt 12% (w/v), alcohol 0% (v/v), licoricidin 5 ppm): A (The bacterial count decreases to less than 10% of the bacterial count of the control group.)
Antimicrobial activity ([2]; Soy sauce, salt 12% (w/v), alcohol 0% (v/v), licoricidin 10 ppm): A (The bacterial count decreases to less than 10% of the bacterial count of the control group.)
Antimicrobial activity ([2]; Soy sauce, salt 12% (w/v), alcohol 0% (v/v), licoricidin 25 ppm): A (The bacterial count decreases to less than 10% of the bacterial count of the control group.)
Antimicrobial activity ([2]; Soy sauce, salt 12% (w/v), alcohol 0% (v/v), licoricidin 50 ppm): A (The bacterial count decreases to less than 10% of the bacterial count of the control group.)
